Among the data in patent US9957274B2, “Indane inhibitors of EED and methods of their use” (AbbVie Inc., priority 2016, dated 2018) are IC50 values, retold here.

Experiment [1] relates to H3K27me3 in G401 cells. Briefly: H3K27me3 AlphaLISA assay in G401 cells. The class given is cell-based. To be noted: Homo sapiens, G-401, 144 h, 6 days with compound. The method, then:
G401 cells (ATCC catalog # CRL-1441) were maintained in McCoy's 5a medium (ATCC) supplemented with 10% heat-inactivated FBS (HyClone) at 37° C. in a humidified CO2 incubator. OCILY19 cells (DSMZ catalog #ACC 528) were maintained in IMDM (Invitrogen) supplemented with 10% human serum (Sigma) at 37° C. in a humidified CO2 incubator. 5,000 cells were plated into each well of 96-well Corning CellBing cell culture plates and incubated overnight at 37° C. in a humidified CO2 incubator. […] The cell culture plates were then incubated for 6 more days. H3K27me3 AlphaLISA assay was performed on the cell culture samples by using AlphaLISAR® H3K27me3 Cellular Detection Kit (PerkinElmer) and 96-well white half-area plates (PerkinElmer).
Background: Bead proximity is the source of the signal in Alpha formats.

For experiment [2], the system named is Pfeiffer cells. As to the kind of experiment: CTG cell viability assay (CellTiter-Glo). To be noted: Homo sapiens, 240 h; Pfeiffer cells, 10 days with compound, CellTiter-Glo; read-out: Cell Proliferation IC50. The class given is cell-based. The protocol: 1,000 cells were plated into each well of 96-well Corning CellBing cell culture plates and incubated overnight at 37° C. in a humidified CO2 incubator. […] The cell culture plates were then incubated for 10 more days. CTG cell viability assay was performed on the cell culture samples by using CellTiter-Glo® Luminescent Cell Viability Assay Kit (Promega).
(Cellular ATP, detected with luciferase, serves as a proxy for viable cell number.)

Experiment [3] concerns the target EED (Homo sapiens, UniProt O75530). Briefly: EED TR-FRET Binding Assay (modified LanthaScreen competition assay). Summed up:
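Competition binding in a modified LanthaScreen format, in 20 mM Tris-HCl pH 7.5, 200 mM NaCl, 0.01% Tween-20, 10 uM DTT and 0.05% BSA. Reactions ran 1 hour at 25° C before TR-FRET detection.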
Background: In TR-FRET formats the signal depends on donor and acceptor labels being close together.

Experiment [4] relates to H3K27me3 in OCILY19 cells. As to the kind of experiment: H3K27me3 AlphaLISA assay in OCILY19 cells. The experiment is classed as cell-based. To be noted: Homo sapiens, OCI-LY19, 144 h, 6 days with compound, read-out: OCILY-19 IC50. The protocol: 5,000 cells were plated into each well of 96-well Corning CellBing cell culture plates and incubated overnight at 37° C. in a humidified CO2 incubator. […] The cell culture plates were then incubated for 6 more days. H3K27me3 AlphaLISA assay was performed on the cell culture samples by using AlphaLISAR® H3K27me3 Cellular Detection Kit (PerkinElmer) and 96-well white half-area plates (PerkinElmer).

Molecules are shown by their SMILES. pIC50: −log10 of the molar value.

Sequence of EED (O75530 whole entry): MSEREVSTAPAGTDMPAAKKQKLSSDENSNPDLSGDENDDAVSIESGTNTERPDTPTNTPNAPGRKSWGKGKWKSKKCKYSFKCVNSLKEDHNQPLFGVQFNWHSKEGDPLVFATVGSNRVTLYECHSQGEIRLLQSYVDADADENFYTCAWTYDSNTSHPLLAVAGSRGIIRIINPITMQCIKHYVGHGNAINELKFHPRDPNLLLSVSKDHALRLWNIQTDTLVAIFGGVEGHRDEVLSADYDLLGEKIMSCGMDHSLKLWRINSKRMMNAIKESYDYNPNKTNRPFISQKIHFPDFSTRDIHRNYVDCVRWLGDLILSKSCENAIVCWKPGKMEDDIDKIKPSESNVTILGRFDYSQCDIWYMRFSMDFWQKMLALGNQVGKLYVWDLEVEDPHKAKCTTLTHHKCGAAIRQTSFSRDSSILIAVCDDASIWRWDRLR

With `CN(C)C(=O)Cn1cc(-c2ccc([C@@H]3CN(C4CCc5cccc(F)c54)C[C@H]3N(C)C)cn2)cn1` (mixture of isomers) [Example 159, rac-2-(4-{5-[(3R,4S)-4-(dimethylamino)-1-(7-fluoro-2,3-dihydro-1H-inden-1-yl)pyrrolidin-3-yl]pyridin-2-yl}-1H-pyrazol-1-yl)-N,N-dimethylacetamide], the pIC50 in experiment [1] is 6.80; in experiment [2], 6.61; in experiment [3] it was 8.94; in experiment [4], 6.63.

As for `CN(C)[C@@H]1CN(C2CCc3cccc(F)c32)C[C@H]1c1ccc(N2CCN(C(=O)CS(N)(=O)=O)CC2)nc1` (mixture of isomers) [Example 160, rac-2-(4-{5-[(3R,4S)-4-(dimethylamino)-1-(7-fluoro-2,3-dihydro-1H-inden-1-yl)pyrrolidin-3-yl]pyridin-2-yl}piperazin-1-yl)-2-oxoethane-1-sulfonamide], the pIC50 in experiment [1] is 6.72; in experiment [2] it was 6.52; in experiment [3], 8.97; in experiment [4], 6.82.

Consider `CNC(=O)Cn1cc(-c2ccc([C@@H]3CN(C4CCc5cccc(F)c54)C[C@H]3N(C)C)cn2)cn1` (mixture of isomers) [Example 161, rac-2-(4-{5-[(3R,4S)-4-(dimethylamino)-1-(7-fluoro-2,3-dihydro-1H-inden-1-yl)pyrrolidin-3-yl]pyridin-2-yl}-1H-pyrazol-1-yl)-N-methylacetamide], for which the pIC50 in experiment [1] was 6.82; in experiment [2] it was 6.53; in experiment [3] it was 9.17; in experiment [4] it was 6.24.

For `CN(C)[C@H]1CN(C2CCc3cccc(F)c32)C[C@@H]1C1CCN(c2ncc(C(N)=O)s2)CC1` (mixture of isomers) [Example 162, rac-2-{4-[(3S,4R)-4-(dimethylamino)-1-(7-fluoro-2,3-dihydro-1H-inden-1-yl)pyrrolidin-3-yl]piperidin-1-yl}-1,3-thiazole-5-carboxamide], the pIC50 in experiment [1] was 6.54; in experiment [2], 6.67; in experiment [3], 9.19; in experiment [4], 6.31.

`CN(C)[C@H]1CN(C2CCc3cccc(F)c32)C[C@@H]1c1cn(C)c2ncccc12` (mixture of isomers) [Example 164, rac-(3R,4S)-1-(7-fluoro-2,3-dihydro-1H-inden-1-yl)-N,N-dimethyl-4-(1-methyl-1H-pyrrolo[2,3-b]pyridin-3-yl)pyrrolidin-3-amine]: the pIC50 was 6.54 in experiment [1], 6.83 in experiment [2], 9.31 in experiment [3] and 6.34 in experiment [4].

As for `CN(C)[C@H]1CN(C2CCc3cccc(F)c32)C[C@@H]1C1CCN(c2ccc(C(N)=O)nn2)CC1` (mixture of isomers) [Example 165, rac-6-{4-[(3S,4R)-4-(dimethylamino)-1-(7-fluoro-2,3-dihydro-1H-inden-1-yl)pyrrolidin-3-yl]piperidin-1-yl}pyridazine-3-carboxamide], the pIC50 in experiment [1] was 7.25; in experiment [2], 6.54; in experiment [3] it was 9.32; in experiment [4], 6.57.

Take `CN(C)[C@H]1CN(C2CCc3cccc(F)c32)C[C@@H]1C1CCN(c2ccc(C(N)=O)cc2)CC1` (mixture of isomers) [Example 166, rac-4-{4-[(3S,4R)-4-(dimethylamino)-1-(7-fluoro-2,3-dihydro-1H-inden-1-yl)pyrrolidin-3-yl]piperidin-1-yl}benzamide]: the pIC50 is 6.64 in experiment [1], 6.89 in experiment [2], 9.34 in experiment [3] and 6.56 in experiment [4].

Regarding `CN(C)[C@H]1CN(C2CCc3cccc(F)c32)C[C@@H]1C1CCN(c2ccc(C(N)=O)cn2)CC1` (mixture of isomers) [Example 167, rac-6-{4-[(3S,4R)-4-(dimethylamino)-1-(7-fluoro-2,3-dihydro-1H-inden-1-yl)pyrrolidin-3-yl]piperidin-1-yl}pyridine-3-carboxamide], the pIC50 in experiment [1] is 6.88; in experiment [2], 6.84; in experiment [3], 9.40; in experiment [4], 6.57.
